Among the data in PubChem BioAssay (NCI) are TGI and GI50 values, retold here.

Some test systems named below: RPMI-8226 leukemia; A549 NSCLC; LOX IMVI melanoma; NCI-H23 lung; DMS 114 small cell lung; M19-MEL melanoma; SK-MEL-28 melanoma; OVCAR-4 ovarian; A498 renal; BT-549 breast.
What all share (assay): inhibition of tumour cell growth, NCI panel, 48 h

Molecules are shown by their SMILES. Values joined by “and” are separate entries in the source; they are usually repeats but may differ in a detail not shown here. Equal entries are not always repeated.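 These data come from cells grown in 96-well plates and exposed to compound for 48 hours at five concentrations. GI50: concentration for 50% inhibition of growth. TGI is the concentration that stops growth completely.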

With `COc1c(C)cc2c(C(C)C)c(O)c(O)c(C=O)c2c1O`, the TGI in the test with RPMI-8226 leukemia was above 100 µM; in the test with A549 NSCLC it was above 100 µM; in the test with LOX IMVI melanoma, 68.9 µM; with NCI-H23 lung it was 47.8 µM; with DMS 114 small cell lung, 37.9 µM; in the test on M19-MEL melanoma, 81.8 µM. The figures for the TGI with SK-MEL-28 melanoma and in the test with OVCAR-4 ovarian were 75.1 µM and 63.9 µM, respectively.
Take `COc1cc(-c2nccc3cc(OC)c(OC)cc23)ccc1O`: the TGI with RPMI-8226 leukemia, in the test with A549 NSCLC, in the test with LOX IMVI melanoma, in the test with NCI-H23 lung, in the test with M19-MEL melanoma and in the test with SK-MEL-28 melanoma was above 100 µM in each case. The TGI in the test on OVCAR-4 ovarian is above 100 µM.
As to `N#Cc1ccc(Cc2ccccn2)cc1Cl`, the TGI in the test on A549 NSCLC, with LOX IMVI melanoma, in the test with NCI-H23 lung, in the test with DMS 114 small cell lung, in the test with M19-MEL melanoma and with SK-MEL-28 melanoma was above 100 µM each time. The same compound showed a TGI with OVCAR-4 ovarian above 100 µM.
As for `CC(CCC[C@H](C)CO)[C@H]1[C@@H](O)C(O)C2[C@@H]3C[C@@H](O)C4(O)C[C@@H](O)CC[C@]4(C)C3CC[C@@]21C` (stereo partly drawn), the TGI in the test with RPMI-8226 leukemia, with A549 NSCLC, in the test on LOX IMVI melanoma, in the test on NCI-H23 lung, in the test on DMS 114 small cell lung and with M19-MEL melanoma was above 100 µM throughout. Also, the TGI in the test with SK-MEL-28 melanoma and in the test on OVCAR-4 ovarian was above 100 µM throughout.
Consider `CO[C@@H]1C=C[C@@]23c4cc5c(cc4CN(C[C@@H]2O)[C@H]3C1)OCO5`, for which the TGI with RPMI-8226 leukemia is above 100 µM; with A549 NSCLC, above 100 µM; with LOX IMVI melanoma it was 80.9 µM; in the test on NCI-H23 lung it was above 100 µM; in the test with DMS 114 small cell lung, above 100 µM; in the test on M19-MEL melanoma, above 100 µM. Also, the TGI is above 100 µM in the test on SK-MEL-28 melanoma and 18.8 µM with OVCAR-4 ovarian.
Turning to `CC(=O)OC(CC1(C)C(C)CCC23COC(=O)C2=CCCC31)c1ccoc1` (stereo not drawn), the TGI in the test on A549 NSCLC was above 100 µM; in the test on LOX IMVI melanoma it was 47.9 µM; in the test with NCI-H23 lung, 54.5 µM; in the test with DMS 114 small cell lung it was above 100 µM; with A498 renal, above 100 µM; with M19-MEL melanoma, above 100 µM. In addition, the results for the TGI in the test on SK-MEL-28 melanoma and in the test on OVCAR-4 ovarian were 33 µM and above 100 µM, respectively.
For `CCOC(=O)Cn1c2ccccc2c(=O)c2cc(C)c(C)c(C#N)c21`, the TGI in the test with RPMI-8226 leukemia, in the test with A549 NSCLC, in the test on LOX IMVI melanoma, in the test on NCI-H23 lung, in the test on M19-MEL melanoma and in the test with SK-MEL-28 melanoma was above 100 µM in each case.
Consider `COC(OC)c1cc2c(cc1C=O)OCO2`, for which the TGI with A549 NSCLC, in the test on NCI-H23 lung, in the test on DMS 114 small cell lung, in the test on M19-MEL melanoma, with SK-MEL-28 melanoma and in the test with OVCAR-4 ovarian was above 100 µM throughout.
As for `CCOC(=O)C1SC(=Nc2ccc(OC)c(OC)c2)N=C1C` (stereo not drawn), the TGI is above 100 µM in the test with A549 NSCLC; above 100 µM in the test on LOX IMVI melanoma; above 100 µM with NCI-H23 lung; 80.5 µM with DMS 114 small cell lung; above 100 µM with A498 renal; above 100 µM in the test on SK-MEL-28 melanoma. For the same compound, the TGI with OVCAR-4 ovarian is above 100 µM.
With `CCN(CC)CCCC(C)Nc1ccnc2cc(Cl)ccc12` (stereo not drawn), the TGI is 69.6 µM in the test with RPMI-8226 leukemia; above 100 µM with A549 NSCLC; 48.8 µM and 45 µM with LOX IMVI melanoma; above 100 µM in the test with NCI-H23 lung; above 100 µM with BT-549 breast; 56.4 µM in the test with DMS 114 small cell lung. Further, the TGI with A498 renal is above 100 µM; in the test on SK-MEL-28 melanoma it was > 100 µM and 42.3 µM; in the test on OVCAR-4 ovarian, above 100 µM. Moreover, the GI50 with A549 NSCLC is 64.9 µM; with LOX IMVI melanoma, 18.4 µM; in the test with BT-549 breast, 55.9 µM; in the test with A498 renal, above 100 µM; in the test with SK-MEL-28 melanoma, 39.9 µM; in the test with OVCAR-4 ovarian, above 100 µM.
As to `N#CC(C(=O)C(=O)Nc1ccccc1)c1ccccc1` (stereo not drawn), the TGI with RPMI-8226 leukemia, in the test with A549 NSCLC, in the test on LOX IMVI melanoma, in the test on NCI-H23 lung, with M19-MEL melanoma and in the test with SK-MEL-28 melanoma was above 100 µM throughout.
With `COc1ccc(/C(=N\NC(=O)NN)C(c2ccc(OC)cc2)C2(O)C(=O)Nc3c(Cl)cc(Cl)cc32)cc1` (stereo not drawn), the TGI in the test on RPMI-8226 leukemia, in the test with A549 NSCLC, in the test with LOX IMVI melanoma, with NCI-H23 lung, with DMS 114 small cell lung and in the test with M19-MEL melanoma was above 100 µM in each case. Moreover, the TGI in the test with SK-MEL-28 melanoma and in the test on OVCAR-4 ovarian was above 100 µM each time.
With `C=C(CO)CC(O)c1cc(OC)ccc1OC` (stereo not drawn), the TGI with RPMI-8226 leukemia, with A549 NSCLC, with LOX IMVI melanoma, in the test on M19-MEL melanoma, with SK-MEL-28 melanoma and with OVCAR-4 ovarian was above 100 µM throughout.
For the compound `O=C(O)[C@H](Cc1c[nH]c2ccccc12)N1C(=O)c2ccccc2C1=O`, the TGI in the test on RPMI-8226 leukemia, with A549 NSCLC, in the test with LOX IMVI melanoma, in the test with NCI-H23 lung, in the test on BT-549 breast and with A498 renal was above 100 µM each time. The TGI with SK-MEL-28 melanoma and with OVCAR-4 ovarian was above 100 µM throughout. Moreover, the GI50 in the test with A498 renal is 87.3 µM.
On to `COc1ccc([N+](=O)[O-])c2c(NCCCN(C)C)ccnc12`, for which the TGI in the test with RPMI-8226 leukemia was 6.53 µM; in the test with A549 NSCLC it was 23.8 µM; with LOX IMVI melanoma, 31 µM; with NCI-H23 lung it was 6.19 µM; in the test with BT-549 breast, 6.45 µM; with A498 renal, 5.18 µM. The TGI in the test on SK-MEL-28 melanoma was above 100 µM; in the test with OVCAR-4 ovarian it was 3.69 µM.
With `CCCCCCCCCCCCCCCCCc1nccn1CCOCCO`, the GI50 in the test with RPMI-8226 leukemia is 3.87 µg/mL; in the test on A549 NSCLC, 4.88 µg/mL; in the test on LOX IMVI melanoma, 5.11 µg/mL; in the test on NCI-H23 lung, 4.73 µg/mL; in the test with BT-549 breast it was 6.1 µg/mL; in the test on A498 renal it was 4.82 µg/mL. Moreover, the GI50 in the test with SK-MEL-28 melanoma was 6.22 µg/mL; in the test on OVCAR-4 ovarian it was 4.46 µg/mL. In addition, the TGI in the test on RPMI-8226 leukemia was 10.9 µg/mL; in the test with A549 NSCLC, 10.2 µg/mL; in the test with LOX IMVI melanoma it was 10.4 µg/mL; in the test on NCI-H23 lung, 9.73 µg/mL; with BT-549 breast, 11.7 µg/mL; with A498 renal, 11 µg/mL. Moreover, the TGI was 11.4 µg/mL with SK-MEL-28 melanoma and 9.62 µg/mL in the test with OVCAR-4 ovarian.
Consider `O=C1/C=C/[C@@H](O)[C@@H]2C[C@@H](O)C[C@H]2/C=C/CCC[C@H](CCc2cccc3ccccc23)O1`, for which the GI50 in the test on RPMI-8226 leukemia is 0.0847 µM; in the test on A549 NSCLC, 0.0411 µM; with LOX IMVI melanoma it was 0.0323 µM; with NCI-H23 lung, 0.0637 µM; in the test on BT-549 breast it was 0.0609 µM; with A498 renal, 0.0185 µM. The GI50 with SK-MEL-28 melanoma is 0.0313 µM; in the test on OVCAR-4 ovarian it was 0.0525 µM. Besides, the TGI was determined as 2.73 µM in the test with RPMI-8226 leukemia; 13.2 µM with A549 NSCLC; 0.11 µM in the test with LOX IMVI melanoma; 1.9 µM in the test on NCI-H23 lung; 12.1 µM with BT-549 breast; 0.815 µM in the test on A498 renal. The results for the TGI with SK-MEL-28 melanoma and in the test on OVCAR-4 ovarian were 0.163 µM and 3.82 µM, respectively.
For the compound `CO[C@H]1C=CO[C@@]2(C)Oc3c(C)c(O)c4c(O)c(c(CN5CCN(C)CC5)c(O)c4c3C2=O)NC(=O)/C(C)=C\C=C[C@H](C)[C@H](O)C(C)[C@@H](O)C(C)[C@H](OC(C)=O)[C@@H]1C` (stereo partly drawn), the TGI with RPMI-8226 leukemia is above 87.4 µM; in the test on A549 NSCLC, above 100 µM; in the test on LOX IMVI melanoma, above 71.9 µM; in the test on NCI-H23 lung it was above 77.6 µM; with BT-549 breast it was above 100 µM; with A498 renal it was above 100 µM. For the same compound, the TGI with SK-MEL-28 melanoma and with OVCAR-4 ovarian was above 100 µM throughout.
Take `CC1=CC(C)=NN=C(N)N1S(=O)(=O)c1cc(C)c(Cl)cc1SCc1ccccc1`: the GI50 is 5.93 µM in the test on RPMI-8226 leukemia; 31.3 µM in the test with A549 NSCLC; 58.4 µM with LOX IMVI melanoma; 14.2 µM in the test on NCI-H23 lung; 17.8 µM with BT-549 breast; above 100 µM with A498 renal. The figures for the GI50 with SK-MEL-28 melanoma and with OVCAR-4 ovarian were 88.5 µM and 11.5 µM, respectively. Besides, the TGI in the test on RPMI-8226 leukemia, in the test on A549 NSCLC, in the test with LOX IMVI melanoma, with NCI-H23 lung, with BT-549 breast and with A498 renal was above 100 µM each time. The TGI in the test on SK-MEL-28 melanoma and in the test on OVCAR-4 ovarian was above 100 µM each time.
As for `CC(=O)OC1CCC2(C)C(CCC3C2CC(=O)C2(C)C3CC(N3CC3)C2C(C)=O)C1` (stereo not drawn), the TGI in the test on RPMI-8226 leukemia was 83.6 µM; in the test on A549 NSCLC it was above 100 µM; with LOX IMVI melanoma, 29.3 µM; with NCI-H23 lung, 44.9 µM; with BT-549 breast, 40.1 µM; in the test with A498 renal it was 53.9 µM. Besides, the TGI with SK-MEL-28 melanoma and in the test on OVCAR-4 ovarian was above 100 µM in each case.
With `CCCCCOCC(O)CO` (stereo not drawn), the TGI in the test with A549 NSCLC, in the test with LOX IMVI melanoma, in the test with NCI-H23 lung, in the test on DMS 114 small cell lung, in the test on A498 renal and in the test with SK-MEL-28 melanoma was above 100 µM in each case. In addition, in the test with OVCAR-4 ovarian, the TGI is above 100 µM.
